The text below walks through data of article PMC11550998, “Novel 5-HT7 receptor antagonists modulate intestinal immune responses and reduce severity of colitis” (American Journal of Physiology - Gastrointestinal and Liver …, 2024).

Molecules are shown by their SMILES.

Data set [1] concerns CD4+CD45RBhigh T cell-induced colitis. The data set is described as follows: CD4+CD45RBhigh T cell-induced chronic colitis model. The class given is in vivo, Rag1-/- mice. From the text:
C57BL/6 (Taconic, Cambridge City, IN) for the DSS model of colitis, as well as C57BL/6 and Rag1^−/− mice (Jackson Laboratory, Bar Harbor, ME) for the T-cell transfer model, were kept in sterilized, filter-topped cages under specific pathogen-free conditions upon arrival and fed autoclaved food. Male mice aged 8–10 wk were used for all experiments. Mice were acclimatized for 7 days before the start of any experiments. All experiments were approved by the animal ethics committee of McMaster University and conducted under Canadian guidelines for animal research.
Colitis was induced in Rag1^−/− mice by adoptive transfer of fluorescence-activated cell sorting (FACS)-sorted CD4^+CD45RB^high T cells, as described previously ([18]). Briefly, CD4^+ T cells were isolated from splenocytes of healthy C57BL/6 mice by the EasySep Mouse Naive CD4^+ T Cell Isolation Kit (StemCell Technology, Vancouver, Canada). Naive CD4^+ T cells were then labeled with PE-cy7-conjugated anti-mouse CD3 (BioLegend, San Diego, CA), allophycocyanin (APC)-conjugated anti-mouse CD4 (BD Biosciences), and fluorescein isothiocyanate (FITC)-conjugated anti-mouse CD45RB (BD Biosciences, Mississauga, Canada). CD4^+CD45RB^high T cells were sorted using a FACS Aria II flow cytometer (BD Biosciences, Mississauga, Canada). Cell viability was assessed using a Trypan blue assay before injection. Recipients were administered ∼5 × 10^5 sorted T cells via intraperitoneal injection.
For acute DSS-induced colitis, C576BL/6 mice were treated with MC-170073 (10 mg/kg of body wt) or vehicle (10% DMSO in normal saline) via intraperitoneal injection once daily for 6 days, starting 1 day before the beginning of DSS. In a separate experiment, C57BL/6 mice were orally administered with MC-230078 (10 mg/kg) or vehicle twice daily for 5 days, starting from the beginning of DSS. For chronic DSS-induced colitis, C57BL/6 mice were treated with MC-170073 (10 mg/kg ip) or vehicle once daily for 6 days, starting 1 day before the beginning of the third cycle. Last, for CD4^+CD45RB^high T cell-induced chronic colitis, reconstituted Rag1^−/− mice were orally administered MC-230078 (5 mg/kg or 10 mg/kg) or a vehicle twice daily for 10 days starting from week 6 post-reconstitution of T cells.
Disease activity index (DAI) is a combined score of weight loss, stool consistency, and fecal bleeding and was blindly assessed using a previously published scoring system ([19]). This scoring system was defined as follows: weight loss: 0 = no loss; 1 = 1–5%; 2 = 5–10%; 3 = 10–20%; 4 = 20%+; stool, 0 = normal; 2 = loose stool; 4 = diarrhea; and bleeding: 0 = no blood; 2 = hemoccult positive (Hemoccult II; Beckman Coulter, Fullerton, CA); and 4 = gross blood (blood around anus). DAI was measured across all days of DSS treatment. Macroscopic damage scores were blindly scored using a previously published scoring system for DSS-induced colitis ([19]).
Colonic myeloperoxidase (MPO) levels were measured following a published protocol ([19]). Briefly, colonic tissue samples were homogenized in ice-cold 50 mmol·L^−1 potassium phosphate buffer containing 0.5% hexadecyl trimethyl ammonium bromide (pH = 6.0) (Sigma). Homogenates were centrifuged, the supernatant was removed, and an aliquot was then added to a solution containing potassium phosphate buffer, O-dianisidine, and hydrogen peroxide (Sigma-Aldrich). The absorbance was measured at 450 nm by a spectrophotometer (model EL808, BioTek). MPO level was expressed in units per milligram of tissue, where 1 U is defined as the quantity of enzyme able to convert 1 μmol hydrogen peroxide to water per minute at room temperature.
Segments of the proximal colon were washed with PBS, fixed in 10% neutral-buffered formalin, washed with ethanol, and embedded in paraffin. […]

In another data set the target is T1, D1 (Homo sapiens, UniProt P21728).
T1 construct: NIMH Psychoactive Drug Screening Program (PDSP), assay service
Nature of the data set: PDSP selectivity profiling, D1. In kind it is binding.

The nature of data set [2]: Plasma protein binding by equilibrium dialysis. In kind it is in vitro ADME. As to conditions: mouse. The protocol:
Plasma protein binding was performed by using equilibrium dialysis (ED) ([17]). ED was performed using a 96-well equilibrium dialyzer with a molecular weight (MW) cutoff of 5 K (Harvard Apparatus, Holliston, MA) and placed in a dual-plate rotator set to maximum speed (Harvard Apparatus, Holliston, MA) located in a 37°C incubator with a 10% CO2 environment. After 22 h of dialysis, buffer and plasma were removed from each side of the dialysis plate. Samples were mixed with equal volumes of the opposite matrix (plasma or buffer) and stored at −20°C for future analyte quantitation.
Plasma concentrations were determined using an LC-MS/MS method. Briefly, 100-µL acetonitrile with an internal standard solution (Diltiazem, 0.1 μg/mL) was added to 50-µL plasma or tissue homogenate. After being vortexed for 1 min, the mixture was centrifuged at 3,000 g for 5 min. LC-MS/MS analysis was carried out using a high-performance liquid chromatography system consisting of an Agilent 1100 system interfaced to an API4000 SCIEX triple-quadrupole tandem mass spectrometer (Applied Biosystems/MDS Sciex, Foster City, CA). […] The detection and quantification of analytes were performed with the m/z transition 347/191 for MC-170073, MC-230078, and MC-230079, and m/z 415/178 for diltiazem.

Where [3] appears, read: 10 mg/kg orally twice daily 10 days, vs vehicle.

T1 sequence (P21728 whole entry): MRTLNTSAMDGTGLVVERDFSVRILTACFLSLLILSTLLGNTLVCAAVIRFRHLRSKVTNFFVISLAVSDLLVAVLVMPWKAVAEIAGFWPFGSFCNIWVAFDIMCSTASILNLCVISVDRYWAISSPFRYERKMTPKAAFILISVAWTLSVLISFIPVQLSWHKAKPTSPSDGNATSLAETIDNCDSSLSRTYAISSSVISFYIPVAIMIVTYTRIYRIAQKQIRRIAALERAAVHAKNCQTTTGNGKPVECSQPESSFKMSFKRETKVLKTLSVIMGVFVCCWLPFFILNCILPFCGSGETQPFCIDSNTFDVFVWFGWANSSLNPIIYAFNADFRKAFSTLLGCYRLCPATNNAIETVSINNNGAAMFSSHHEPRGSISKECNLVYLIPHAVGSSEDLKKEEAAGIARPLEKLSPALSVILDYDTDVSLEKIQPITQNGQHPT

In the case of `CCC1(CC)C[C@@H](CCN2CCN(c3ccc(O)cc3)CC2)OC1=O` [MC-230078], the DAI result in data set [1] (10 mg/kg orally twice daily 10 days from week 6, from day 4 of dosing, vs vehicle) was “significant reduction”. Besides, in data set [1] (setting [3]), the “colonic IFN-γ” value was “significant downregulation”, the “colonic IL-1β” value is “significant downregulation”, the “colonic IL-6” value is given as “significant downregulation” and the “colonic MPO levels” value was “significant decrease”. In addition, in data set [1] (setting [3]), the “colonic TNF-α” value is “significant downregulation” and the macroscopic damage entry is on record as “reduced”. In addition, the body weight change entry in data set [1] (between the two drug-treated groups (5 and 10 mg/kg)) is listed as “no difference”. In data set [1] (higher dosage (10 mg/kg) orally twice daily 10 days), the histological damage scores entry is “significantly lower”. Besides, the “colonic 5-HT levels” value in data set [1] (treated vs vehicle-treated mice) is given as “no differences”.
Take `CCC1(CC)CC(CCN2CCN(c3ccc(O)cc3)CC2)OC1=O` (stereo not drawn) [MC-170073]: the affinity on D1, expressed as Ki, was 301 nM. Further, the fraction unbound (usually free concentration divided by total concentration) at 22 h in data set [2] was 0.6.
